How the values were obtained:
Lactobacilli = assay: Batch culture fermentation, FISH enumeration; type: cell-based, Lactobacillus/Enterococcus spp.; conditions: 1% (w/v) substrate
Description: (§1) Faecal samples are obtained from healthy human volunteers. Volunteers are required not to have been prescribed antibiotics for at least 6 months prior to the study and have no history of gastrointestinal diseases. The samples are collected on site and used immediately following collection. A 1/10 dilution in anaerobic phosphate buffer (0.1 M, pH 7.4) is prepared and the samples homogenised in a stomacher for 2 minutes.
(§2) Sterile, stirred, batch culture fermentation vessels (300 ml volume) are filled with 135 ml basal nutrient medium (peptone water 2 g/l, yeast extract 2 g/l, NaCl 0.1 g/l, K2HPO4 0.04 g/l, KH2PO4 0.04 g/l, MgSO4.7H2O 0.01 g/l, CaCl2.6H2O 0.01, NaHCO3 2 g/l, Tween 80 2 ml, Hemin 0.02 g/l, Vitamin K1 10 μl, Cysteine.HCl 0.5 g/l, Bile salts (sodium glycocholate and sodium taurocholate) 0.5 g/l, pH 7.0) and gassed overnight with oxygen free nitrogen. […] Samples (3 ml) from each vessel are obtained for fluorescence in situ hybridisation (FISH), analysis of SCFA by high performance liquid chromatography (HPLC) and total carbohydrate measurement by assay. […]
(§3) Differences in bacterial populations are assessed through use of FISH with oligonucleotide probes designed to target diagnostic regions of 16S rRNA. […]

Clostridia = assay: Batch culture fermentation, FISH enumeration; type: cell-based, Clostridium coccoides and Clostridium histolyticum; conditions: 1% (w/v) substrate
Description: as §1, §2, §3

E. coli = assay: Batch culture fermentation, FISH enumeration; type: cell-based, Escherichia coli; conditions: 1% (w/v) substrate
Description: For total bacterial counts the nucleic acid stain 4,6-diamidino-2-phenylindole (DAPI) is used. […] For each slide at least 15 different fields of view are counted. […]

Eubacteria = assay: Batch culture fermentation, FISH enumeration; type: cell-based, Eubacterium rectale; conditions: 1% (w/v) substrate
Description: as §1, §2, §3

Bacteroides spp. = assay: Batch culture fermentation, FISH enumeration; type: cell-based; conditions: 1% (w/v) substrate
Description: as §1
(§4) Sterile, stirred, batch culture fermentation vessels (300 ml volume) are filled with 135 ml basal nutrient medium (peptone water 2 g/l, yeast extract 2 g/l, NaCl 0.1 g/l, K2HPO4 0.04 g/l, KH2PO4 0.04 g/l, MgSO4.7H2O 0.01 g/l, CaCl2.6H2O 0.01, NaHCO3 2 g/l, Tween 80 2 ml, Hemin 0.02 g/l, Vitamin K1 10 μl, Cysteine.HCl 0.5 g/l, Bile salts (sodium glycocholate and sodium taurocholate) 0.5 g/l, pH 7.0) and gassed overnight with oxygen free nitrogen. Prior to addition of the faecal slurry,0.25%, 0.5% or 1% (w/v) testing substrates are added to different vessels, culture temperature is set at 37° C. by means of a circulating water bath and medium pH is maintained at 6.8 using an Electrolab pH controller. The vessels are inoculated with 15 ml of fresh faecal slurry ( 1/10 w/v) and continuously sparged with O2-free N2 at a flow rate of 15 ml/min. Samples (3 ml) from each vessel are obtained for fluorescence in situ hybridisation (FISH), analysis of SCFA by high performance liquid chromatography (HPLC) and total carbohydrate measurement by assay. Batch cultures are run over a period of 24 hours and samples are obtained every 2 hours up to 12 hours and then at 15 and 24 hours.
(§5) Differences in bacterial populations are assessed through use of FISH with oligonucleotide probes designed to target diagnostic regions of 16S rRNA. These are commercially synthesised and labelled with the fluorescent dye Cy3 (provided by Eurogentec UK Ltd).
(§6) For total bacterial counts the nucleic acid stain 4,6-diamidino-2-phenylindole (DAPI) is used. Samples obtained from fermentation vessels are diluted in 4% (w/v) paraformaldehyde and fixed overnight at 4° C. The cells are then centrifuged at 1500×g for 5 minutes, washed twice with phosphate-buffered saline (PBS; 0.1 M, pH 7.0), resuspended in a mixture of PBS/99% ethanol (1:1 w/v) and stored at −20° C. for at least 1 hour. For Lab 158 probe samples are further resuspended in the enzyme mixture containing agents that increase cell permeability and incubated for 1 hour at 37° C. The cells are then washed in PBS, resuspended in 100% methanol and stored at −20° C. for at least 1 hour. The cell suspension is then added to the hybridisation mixture and left overnight to hybridise at the appropriate temperature for each probe. Hybridized mixture is vacuum filtered using a 0.2 μm Isopore membrane filter (Millipore Corporation, Herts, UK). The filter is removed, placed onto a glass slide with SlowFade (Molecular Probes, Eugan, Oreg., USA) and examined under a fluorescent microscope (Nicon Eclipse, E400). The DAPI stained cells are examined under UV light and hybridised cells viewed using a DM510 filter. […] Samples are taken after 24 hours. […] Microbial counts are presented as log10cells/ml.

Bifidobacterium spp. = assay: Batch culture fermentation, FISH enumeration; type: cell-based; conditions: 1% (w/v) substrate
Description: as §1, §4, §5, §6

Desulfovibrio spp. = assay: Batch culture fermentation, FISH enumeration; type: cell-based; conditions: 1% (w/v) substrate
Description: as §1, §4, §5, §6

faecal bacteria [1] = assay: Analysis of SCFA production by HPLC, batch culture; type: cell-based, human; conditions: 1% (w/v) substrate
Description: The production of succinic, lactic, formic, acetic, propionic, isobutyric, butyric, isovaleric and valeric acids in the fermentations is quantified by HPLC. Samples are centrifuged at 1500×g for 15 minutes and the resultant supernatant used for injection. A Model 1050 UV HPLC (Hewlett Packard), with an integrated oven compartment (50° C.) and data system is used in combination with a differential refractometer (Knauer). Sample injection is performed using an autosampler and is of 20 μl volume. The column is a pre-packed Aminex HPX-87-H strong cation-exchange resin column (150×7.8 mm I.D.), fitted with an ion exclusion micro-guard refill cartridge (Bio-Rad Labs., USA). The eluent used is 0.005 M sulphuric acid. Faecal samples are incubated with 135 ml basal nutrient medium containing 1% (w/v) substrate in batch culture systems at 37° C. Samples are taken every 2 hours up to 10 hours and then at 15 and 24 hours.

faecal bacteria [2] = assay: Total carbohydrate assay, rate of substrate assimilation, batch culture; type: cell-based, human; conditions: St=S0−Art, S0=1% by weight, exponential phase of bacterial growth
Description: A phenol-sulphuric acid assay is used for the determination of total carbohydrate content as expressed in glucose equivalents. The assay is calibrated with D-glucose standards ranging from 0 to 0.15 mgml^−1. Measurements of the absorbance at 450 nm are taken using the spectrophotometer and plotted against the standards. The total carbohydrate content is thus calculated. […] Samples are taken every 2 hours up to […] and then at 15 and 24 hours. […] The rate of assimilation is calculated with the following equation: St=S0−Art […]

faecal bacteria [3] = assay: Measure of the prebiotic effect (MPE), batch culture; type: cell-based, human; conditions: ½√(x²y²+x²z²+y²z²), x=PI (μmax), y=ratio, z=Ar; sign from PI
Description: The three values (PI, Ar and ratio) obtained are used to calculate the MPE value using the following equation: ½√{square root over (x^2y^2+x^2z^2+y^2z^2)}=MPE wherein x=PI (as calculated under paragraph 2.1.2); y=ratio of lactate over total SCFA (as calculated under paragraph 2.2) and z=Ar (as calculated under paragraph 2.3).

## OC[C@H]1O[C@@](CO)(O[C@H]2O[C@H](CO)[C@@H](O)[C@H](O)[C@H]2O)[C@@H](O)[C@@H]1O [Sucrose, sucrose]
Lactobacilli
  μmax L (maximum growth rate, lactobacilli): 0.03 h⁻¹
Lactobacilli; 24 hours, FISH
  Lactobacilli microbial counts: 6.7 log10cells/ml
Clostridia
  μmax Cl (maximum growth rate, Clostridium coccoides and Clostridium histolyticum): 0.22 h⁻¹
Clostridia; 24 hours, FISH
  Clostridia microbial counts: 7.6 log10cells/ml
E. coli
  μmax Co (maximum growth rate, Escherichia coli): 0.27 h⁻¹
E. coli; 24 hours, FISH
  E. Coli microbial counts: 7.7 log10cells/ml
Eubacteria
  μmax E (maximum growth rate, Eubacterium rectale): -0.21 h⁻¹
Eubacteria; 24 hours, FISH
  Eubacteria microbial counts: 7.7 log10cells/ml
Bacteroides spp.
  μmax Ba (maximum growth rate, Bacteroides spp): 0.11 h⁻¹
Bacteroides spp.; 24 hours, FISH
  Bacteroides microbial counts: 8.1 log10cells/ml
Bifidobacterium spp.
  μmax B (maximum growth rate, Bifidobacterium spp): 0.13 h⁻¹
Bifidobacterium spp.; 24 hours, FISH
  Bifidobacteria microbial counts: 8.0 log10cells/ml
Desulfovibrio spp.
  μmax SRB (maximum growth rate, Desulfovibrio spp): 0.21 h⁻¹
Desulfovibrio spp.; 24 hours, FISH
  Desulfovibrio microbial counts: 6.7 log10cells/ml
Faecal bacteria [1]
  lactate production: low
Faecal bacteria [2]
  Ar (rate of substrate assimilation): 1.4 per hour
Faecal bacteria [2]; listed as sucrose
  Ar (rate of substrate assimilation): 1.40 per hour
Faecal bacteria [3]
  MPE (measure of the prebiotic effect): −0.6

From patent US20070196890A1, “Prebiotic effect analysis” (priority 2003, published 2007)
